Measured values taken from patent US10669300B2, “Methods of separating gemcitabine-phosphate diastereoisomers” (NuCana plc, priority 2014, dated 2020).

Columns and labels:
Solubility in water = type: physicochemical; conditions: regardless of salt content or pH
Source text: It also has implications for the development of efficient manufacturing processes which will allow NUC-1031 to be produced cost effectively.

[1] = Crystallisation optimisation: slurries in acetonitrile and isopropanol, epimers in solution; type: physicochemical; conditions: 20° C., 200 mg 33:67 (R):(S) mixture
Procedure: The enrichment provided by acetonitrile and isopropanol were evaluated at a range of concentrations and temperatures (see Table 2). Two types of experiments were conducted: simple slurries (20° C.) in different volumes and slurries/recrystallisations at 80° C. For the experiments 200 mg of the diastereomeric mixture (33:67 (R):(S)) was suspended in the solvents and volume indicated below and optionally heated to reflux and cooled to 20° C. The suspensions were stirred overnight and isolated. The relative proportions of the two epimers present in both the solution and in the solid cake were determined by HPLC.

[2] = as above; type: physicochemical; conditions: 83° C. (heated to reflux, cooled to 20° C.), 200 mg 33:67 (R):(S) mixture
[3] = Solvent screening: amounts of the two epimers in solution after slurrying NUC-1031 mixture; type: physicochemical; conditions: for epimer in solution: 33:67 (R):(S) mixture in 1 mL, stirred overnight
Procedure: First a solvent screening was conducted with 17 different solvents (see Table 1). Approximately 25 mg of a diastereomeric mixture (33:67 (R):(S)) of NUC-1031 was suspended in the listed solvents (1 mL) and stirred overnight. In case dissolution occurred more solid was added. The suspensions were sedimented and the relative amounts of the two diastereoisomers in solution was determined by HPLC.

[4] = Solubility in mixtures of polar organic solvents with water; type: physicochemical
Source text: It has recently been discovered that the (S)-epimer 3 of gemcitabine-[phenyl-benzoxy-L-alaninyl)]-phosphate has sufficient solubility in mixtures of a number of polar organic solvents with water to render it suitable for formulation and administration as a therapeutic agent. […] In certain solvent mixtures the difference in solubility between the (S)-epimer and the (R)-epimer is over 100 fold. It is expected therefore that more clinically effective, practical and patient friendly administration methods can be developed using the (S)-epimer than can be developed using the (R)-epimer or using the mixture. It is thus desirable to be able to provide gemcitabine-[phenyl-benzoxy-L-alaninyl)]-(S)-phosphate 3 in substantially diastereoisomerically pure form.

[5] = test system: isolated human hepatic cells; experiment: Half-life on incubation with isolated human hepatic cells; type: in vitro ADME
Source text: The longer half-life associated with (R)-isomer indicates a lower intrinsic clearance and should result in a different pharmacokinetic and pharmacodynamic profile to the (S)-isomer which may offer some benefits.

Compound | epimer in solution ([1]; ACN solution, 5 mL) | epimer in solution ([1]; ACN solution, 10 mL) | epimer in solution ([1]; ACN solution, 15 mL) | epimer in solution ([1]; IPA solution, 5 mL) | epimer in solution ([1]; IPA solution, 10 mL) | epimer in solution ([1]; IPA solution, 15 mL) | epimer in solution ([2]; ACN solution, 5 mL) | epimer in solution ([2]; ACN solution, 10 mL) | epimer in solution ([2]; ACN solution, 15 mL) | epimer in solution ([2]; IPA solution, 5 mL) | epimer in solution ([2]; IPA solution, 10 mL) | epimer in solution ([3]; solvent ACN) | epimer in solution ([3]; solvent EtOAc) | epimer in solution ([3]; solvent EtOH) | epimer in solution ([3]; solvent H2O) | epimer in solution ([3]; solvent IPA) | epimer in solution ([3]; solvent MEK) | epimer in solution ([3]; solvent MIBK) | epimer in solution ([3]; solvent MeOH) | epimer in solution ([3]; solvent MeTHF) | also measured
C[C@H](NP(=O)(OC[C@H]1O[C@@H](n2ccc(N)nc2=O)C(F)(F)C1O)Oc1ccccc1)C(=O)OCc1ccccc1 (stereo partly shown) [NUC-1031] | – | – | – | – | – | – | – | – | – | – | – | – | – | – | – | – | – | – | – | – | solubility in water (Solubility in water): essentially insoluble in water
C[C@H](N[P@](=O)(OC[C@H]1O[C@@H](n2ccc(N)nc2=O)C(F)(F)C1O)Oc1ccccc1)C(=O)OCc1ccccc1 (single isomer, unassigned; epimer 2) [(S)-epimer] | 9.04 mg/mL | 8.85 mg/mL | 9.74 mg/mL | 17.75 mg/mL | 12.98 mg/mL | 7.16 mg/mL | 11.03 mg/mL | 11.00 mg/mL | 10.67 mg/mL | 18.20 mg/mL | 12.83 mg/mL | 10.0 mg/mL | 1.1 mg/mL | 15.7 mg/mL | 0.9 mg/mL | 13.0 mg/mL | 3.2 mg/mL | 1.0 mg/mL | 35.1 mg/mL | 1.2 mg/mL | solubility compared with the (R)-epimer ([3]; in all solvents tested): higher solubility; epimer in solution ([3]; solvent TBME): 0.1 mg/mL; epimer in solution ([3]; solvent THF): 6.6 mg/mL; epimer in solution ([3]; solvent acetone): 7.7 mg/mL; epimer in solution ([3]; solvent iPrOAc): 0.6 mg/mL; epimer in solution ([3]; solvent nBuOH): 14.4 mg/mL; epimer in solution ([3]; solvent nPrOH): 10.8 mg/mL; epimer in solution ([3]; solvent nheptane): 0.4 mg/mL; epimer in solution ([3]; solvent toluene): 0.7 mg/mL; difference in solubility between the (S)-epimer and the (R)-epimer ([4]; in certain solvent mixtures): over 100 fold
C[C@H](N[P@@](=O)(OC[C@H]1O[C@@H](n2ccc(N)nc2=O)C(F)(F)C1O)Oc1ccccc1)C(=O)OCc1ccccc1 (single isomer, unassigned; epimer 2) [(R)-epimer] | 0.67 mg/mL | 0.59 mg/mL | 0.63 mg/mL | 0.77 mg/mL | 0.77 mg/mL | 0.58 mg/mL | 1.01 mg/mL | 1.09 mg/mL | 1.19 mg/mL | 1.42 mg/mL | 3.38 mg/mL | 1.1 mg/mL | 0.7 mg/mL | 4.9 mg/mL | 0.5 mg/mL | 1.6 mg/mL | 0.9 mg/mL | 0.7 mg/mL | 22.8 mg/mL | 0.6 mg/mL | half-life relative to that of the (S)-epimer [5]: four times; epimer in solution ([3]; solvent TBME): 0.1 mg/mL; epimer in solution ([3]; solvent THF): 3.0 mg/mL; epimer in solution ([3]; solvent acetone): 2.2 mg/mL; epimer in solution ([3]; solvent iPrOAc): 0.6 mg/mL; epimer in solution ([3]; solvent nBuOH): 1.6 mg/mL; epimer in solution ([3]; solvent nPrOH): 2.2 mg/mL; epimer in solution ([3]; solvent nheptane): 0.4 mg/mL; epimer in solution ([3]; solvent toluene): 0.2 mg/mL; solubility compared with the (S)-epimer ([4]; mixtures of polar organic solvents with water): considerably lower
